Experimental data published in patent publication US9890407B2, “Method for synthesizing cellulose in vitro” (University of Virginia Patent Foundation, priority 2013, dated 2018).

Tests used:
Rs BcsA-B complex [1] = experiment: Cellulose synthase sedimentation assay (3H-labeled water-insoluble cellulose, scintillation counting); format: biochemical, Rhodobacter sphaeroides; conditions: for divalent cation supporting cellulose synthase activity: 20 mM cation, 45 min 37° C.
Protocol: (FIG. 4A) Enzyme-coupled cellulose synthesis assays were performed as described in FIG. 3 in the absence or presence of 0.1 mg/ml E. coli BesZ. […] Inset: Radioactive sedimentation assay performed with ND-reconstituted BcsA-B synthesizing cellulose in the absence or presence of BcsZ. […] The obtained product is quantified relative to the polymer formed in the absence of any nucleoside diphosphate.
FIG. 9A-9B (also referred to as Example 1, Supplementary FIG. 3): Cation selectivity and pH optimum of cellulose synthase. (FIG. 9A) Cellulose synthesis reactions were performed in the presence of 20 mM of the indicated cations or in the absence of any additional divalent cations with and without addition of 20 mM EDTA. The activities are shown relative to the activity in the presence of magnesium. […] All activity assays were performed for 45 min at 37° C. with 1 μM PLs-reconstituted. Rs BcsA-B and by quantifying the accumulation of ^3H-labeled water insoluble cellulose as described.
Following incubation at 37° C. for 45 min, the polymerization reaction was terminated by addition of 2% SDS and the water-insoluble polymer was pelleted by centrifugation at 15,000 rpm at room temperature (RT). The obtained pellet was resuspended in 20 μL 50 mM Tris pH 7.5, 0.1 M NaCl and spotted at the origin of a descending Whatman-2MM chromatography paper, which was developed in an aqueous solution of 60% ethanol. For enzymatic degradation, the pellet was resuspended in 20 μL 50 mM sodium acetate pH 4.5 and 100 mM NaCl and was digested with 0.1 mg/ml of endo-β-1,4- or endo-β-1,3 glucanase from Aspergillus niger (TCI) or Trichoderma sp. (Megazyme), respectively. Following paper chromatography, the high molecular weight polymer retained at the origin was quantified by scintillation counting.
Following synthesis, the reactions were treated as described above.

Rs BcsA-B complex [2] = experiment: Enzyme-coupled (PK/LDH) cellulose synthase activity assay, UDP formation followed via NADH oxidation at 340 nm; format: biochemical, Rhodobacter sphaeroides; conditions: for residual activity with alternative substrate as only carbohydrate source, relative to UDP-Glc: 5 mM substrate, 0.5 μM PL-reconstituted BcsA-B
Protocol: FIG. 3A-3D (also referred to as Example 1, FIG. 3): Kinetic analysis of cellulose synthesis and stimulation by cyclic-di-GMP. (FIG. 3A) Cellulose synthesis reactions were performed in the presence of IU PK and LDH, 0.5 mM NADH and 1 mM PEP. The LDH-catalyzed oxidation of NADH to NAD^+ was monitored spectrophotometrically at 340 nm. […] Addition of 1 mM UDP to the reaction rapidly depletes NADH by circumventing cellulose synthesis. […] The data were fit to monophasic Michaelis-Menten kinetics. […] All reactions were performed at room temperature with 0.5 μM ND-reconstituted BcsA-B in a total volume of 20 μl.
Thus, the second product of the cellulose synthase reaction is UDP. […] Because PK recognizes UDP but not UMP as substrate (36), the successful coupling of cellulose synthesis with its activity implies the formation of UDP. To ensure that all BcsA-B complexes are accessible to the substrates and can contribute to the observed reaction, the complex was reconstituted into lipid nanodiscs (ND) (FIG. S4), which are edge-stabilized, planar lipid bilayer discs approximately 10 nm in diameter (37). At this size, each ND most likely contains a single BcsA-B complex (38).
(§1) Pyruvate kinase (PK)—and lactate dehydrogenase (LDH)-coupled activity assays were performed by incubating 0.5 μM cellulose synthase with 1 U PK and 1 U LDH, 0.5 mM NADH, 1 mM phosphoenolpyruvate, and 30 mM MgCl2 in 20 mM Tris pH 7.5, 100 mM NaCl, 5 mM cellobiose and 10% glycerol in a total volume of 20 μL. The cellulose synthase complex was added last to the reaction mix after a pre-incubation for 10 min at RT. The decrease in absorbance at 340 nm was measured in a SpectraMax plate reader in Corning 384 well clear flat bottom assay plates. Control reactions in the absence of cellulose synthase were performed to determine the background NADH oxidation. Data were plotted and analyzed in Origin (5) and fitted to monophasic Michaelis-Menten kinetics as described (3).

[3] = target: T1, Rhodobacter sphaeroides BcsA-B complex (cellulose synthase), wild type, BcsA SEQ ID NO: 1, BcsB SEQ ID NO: 3 (Cereibacter sphaeroides, UniProt Q3J125); experiment: Inhibition of cellulose synthesis by alternative substrates (enzyme-coupled assay, PLs-reconstituted BcsA-B); format: biochemical; conditions: 1 mM UDP-Glc; for inhibition of polymer synthesis by alternative UDP-sugars: increasing concentrations of UDP-sugar; for reduction of the apparent reaction rate (inhibition): 5 mM alternative UDP-sugar, 90 min, 37° C.
T1 construct: pETDuet, E. coli C43; purified, reconstituted in nanodiscs, proteoliposomes or detergent
T1 sequence (Q3J125 1-788): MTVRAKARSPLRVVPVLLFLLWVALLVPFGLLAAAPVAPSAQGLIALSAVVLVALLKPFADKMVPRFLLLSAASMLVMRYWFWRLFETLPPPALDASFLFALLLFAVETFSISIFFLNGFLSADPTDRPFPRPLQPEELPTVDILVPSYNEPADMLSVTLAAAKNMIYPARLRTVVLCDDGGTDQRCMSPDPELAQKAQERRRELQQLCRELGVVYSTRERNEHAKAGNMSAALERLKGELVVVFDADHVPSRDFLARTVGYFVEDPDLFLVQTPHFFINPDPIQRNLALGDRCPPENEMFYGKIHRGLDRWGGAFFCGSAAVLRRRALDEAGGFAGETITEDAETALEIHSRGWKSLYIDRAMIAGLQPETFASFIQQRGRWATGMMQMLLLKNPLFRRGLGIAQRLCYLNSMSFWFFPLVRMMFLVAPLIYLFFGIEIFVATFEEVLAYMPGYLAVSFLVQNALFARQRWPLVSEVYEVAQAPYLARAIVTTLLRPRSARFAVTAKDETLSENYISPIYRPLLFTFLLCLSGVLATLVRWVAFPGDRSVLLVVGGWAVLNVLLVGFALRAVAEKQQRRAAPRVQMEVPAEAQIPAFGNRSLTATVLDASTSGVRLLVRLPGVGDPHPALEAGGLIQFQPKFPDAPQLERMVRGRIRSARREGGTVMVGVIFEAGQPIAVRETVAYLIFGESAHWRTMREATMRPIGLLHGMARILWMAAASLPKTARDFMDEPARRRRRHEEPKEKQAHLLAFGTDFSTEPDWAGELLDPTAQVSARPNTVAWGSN
T1 sequence (Q3J126 21-725 partner): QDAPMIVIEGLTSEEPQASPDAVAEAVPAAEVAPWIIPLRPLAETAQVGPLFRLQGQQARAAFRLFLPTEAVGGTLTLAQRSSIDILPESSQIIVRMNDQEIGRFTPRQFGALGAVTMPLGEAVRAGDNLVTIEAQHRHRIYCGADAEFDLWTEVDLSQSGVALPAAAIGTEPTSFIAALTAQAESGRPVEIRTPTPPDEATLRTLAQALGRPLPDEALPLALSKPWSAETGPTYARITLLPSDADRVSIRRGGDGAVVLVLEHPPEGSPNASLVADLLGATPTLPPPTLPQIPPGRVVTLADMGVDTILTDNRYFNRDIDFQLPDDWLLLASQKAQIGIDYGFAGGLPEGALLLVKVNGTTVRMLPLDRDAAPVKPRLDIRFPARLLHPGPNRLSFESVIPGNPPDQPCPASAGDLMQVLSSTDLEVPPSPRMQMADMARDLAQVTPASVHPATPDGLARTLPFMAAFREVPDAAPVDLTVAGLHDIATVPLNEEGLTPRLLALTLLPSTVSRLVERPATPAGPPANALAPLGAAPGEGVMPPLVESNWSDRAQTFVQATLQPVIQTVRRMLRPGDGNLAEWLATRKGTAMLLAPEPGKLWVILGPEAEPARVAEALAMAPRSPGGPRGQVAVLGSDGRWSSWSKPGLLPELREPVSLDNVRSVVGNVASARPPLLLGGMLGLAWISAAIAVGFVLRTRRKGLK
Protocol: as §1

[4] = 0.1 mg/ml E. coli BcsZ, ND-reconstituted BcsA-B

Question: `[Mg+2]` [Mg2+] was tested. Which “divalent cation supporting cellulose synthase activity” value (Rs BcsA-B complex [1]; 1 μM PL-reconstituted BcsA-B) did it give?
Answer: approximately equal activity levels

Question: How did the “divalent cation supporting cellulose synthase activity” value (Rs BcsA-B complex [1]; 1 μM PL-reconstituted BcsA-B) turn out when `[Mn+2]` [Mn2+] was run?
Answer: approximately equal activity levels

Question: Which “product formed relative to absence of nucleoside diphosphate” value (Rs BcsA-B complex [1]; 0.7 mM UDP, 0.5 mM UDP-Glc, 1 μM PL-reconstituted BcsA-B, 60 min 37° C.) does the source give for `O=c1ccn([C@@H]2O[C@H](COP(=O)(O)OP(=O)(O)O)[C@@H](O)[C@H]2O)c(=O)[nH]1` [UDP, uridine diphosphate] here?
Answer: 50%

Question: What about the “mode of inhibition of cellulose synthase” value (Rs BcsA-B complex [1]; 0.7 mM UDP, increasing UDP-Glc) of the same molecule?
Answer: competitive

Question: For `CC(=O)N[C@H]1[C@@H](OP(=O)(O)OP(=O)(O)OC[C@H]2O[C@@H](n3ccc(=O)[nH]c3=O)[C@H](O)[C@@H]2O)O[C@H](CO)[C@@H](O)[C@@H]1O` [UDP-N-acetyl glucosamine], which “residual activity with alternative substrate as only carbohydrate source, relative to UDP-Glc” value (shortened to “residual activity … relative to UDP-Glc”) (Rs BcsA-B complex [2]) is on record?
Answer: about 20%

Question: What does the source list for `CC(=O)N[C@H]1[C@@H](OP(=O)(O)OP(=O)(O)OC[C@H]2O[C@@H](n3ccc(=O)[nH]c3=O)[C@H](O)[C@@H]2O)O[C@H](CO)[C@@H](O)[C@@H]1O` [UDP-NAG, UDP-N-acetyl glucosamine]?
Answer: inhibition of polymer synthesis by alternative UDP-sugars [3]: concentration-dependent inhibition; reduction of the apparent reaction rate (inhibition) [3]: 20%

Question: Which results are given for `O=c1ccn([C@@H]2O[C@H](COP(=O)(O)OP(=O)(O)O[C@H]3OC[C@@H](O)[C@H](O)[C@H]3O)[C@@H](O)[C@H]2O)c(=O)[nH]1` [UDP-Xyl, UDP-xylose]?
Answer: inhibition of polymer synthesis by alternative UDP-sugars [3]: strongest inhibitor; reduction of the apparent reaction rate (inhibition) [3]: about 60%

Question: With `O=c1ccn([C@@H]2O[C@H](COP(=O)(O)OP(=O)(O)O[C@H]3OC[C@H](O)[C@H](O)[C@H]3O)[C@@H](O)[C@H]2O)c(=O)[nH]1` [UDP-arabinose] as the molecule, how does the “residual activity … relative to UDP-Glc” value (Rs BcsA-B complex [2]) read?
Answer: about 20%

Question: For `O=C(O)[C@H]1O[C@H](OP(=O)(O)OP(=O)(O)OC[C@H]2O[C@@H](n3ccc(=O)[nH]c3=O)[C@H](O)[C@@H]2O)[C@H](O)[C@@H](O)[C@@H]1O` [UDP-glucuronic acid], which “residual activity … relative to UDP-Glc” value (Rs BcsA-B complex [2]) is on record?
Answer: about 20%

Question: `O=c1ccn([C@@H]2O[C@H](COP(=O)(O)OP(=O)(O)O[C@H]3OC[C@@H](O)[C@H](O)[C@H]3O)[C@@H](O)[C@H]2O)c(=O)[nH]1` [UDP-xylose] was tested. Which “residual activity … relative to UDP-Glc” value (Rs BcsA-B complex [2]) did it give?
Answer: about 20%

B1: BcsZ: E. coli periplasmic cellulase encoded in cellulose synthase operons (protein, UniProt P37651 22-368, looked up)
Endoglucanase: ACTWPAWEQFKKDYISQEGRVIDPSDARKITTSEGQSYGMFSALAANDRAAFDNILDWTQNNLAQGSLKERLPAWLWGKKENSKWEVLDSNSASDGDVWMAWSLLEAGRLWKEQRYTDIGSALLKRIAREEVVTVPGLGSMLLPGKVGFAEDNSWRFNPSYLPPTLAQYFTRFGAPWTTLRETNQRLLLETAPKGFSPDWVRYEKDKGWQLKAEKTLISSYDAIRVYMWVGMMPDSDPQKARMLNRFKPMATFTEKNGYPPEKVDVATGKAQGKGPVGFSAAMLPFLQNRDAQAVQRQRVADNFPGSDAYYNYVLTLFGQGWDQHRFRFSTKGELLPDWGQECANSH
Question: B1 was tested. Which “effect on accumulation of HMW cellulose” value (Rs BcsA-B complex [1]; [4]) did it give?
Answer: prevents the accumulation of HMW cellulose

Question: And the “effect on BcsA-B's apparent reaction rate” value (Rs BcsA-B complex [2]; [4])?
Answer: does not change
